Residues, ends and D or L forms follow the SMILES beside them.
Experiments:
[1] = system: JFH-1 HCVcc; assay: Virus pre-treatment (virocidal) assay; conditions: 1 μM, 2 h at 37 °C, unbound peptide removed by ultracentrifugation, then infection of Huh7.5.1 cells
Source text: After removal of the unbound peptide, the viruses were resuspended and used to infect naïve Huh7.5.1 cells.

[2] = system: E1E2 heterodimer; assay: E1E2 heterodimer analysis by native-PAGE / Western blotting; type: cell-based, Hepatitis C virus; conditions: E27 expressed from plasmid co-transfected with E1E2 in Huh7.5.1 cells, 24 h
Procedure: (§1) Figure 5 Effect of E27 on E1E2 heterodimerization. (a) Analysis of the E1E2 heterodimer by native-PAGE. A plasmid expressing the E27 peptide or a scramble control peptide was co-transfected into Huh7.5.1 cells with a plasmid encoding E1E2. The single E1 or E2 plasmid was used as the control. At 24 h post-transfection, cells were lysed for Western blotting using antibodies recognizing E1 or E2. (b,c) Interaction between the E27 and E1/E2 glycoproteins was determined by co-immunoprecipitation. A plasmid expressing Myc-tagged E27 was co-expressed with either Flag-tagged E1 (b) or Flag-tagged E2 (c). Cell lysates were immunoprecipitated with an anti-Flag antibody and detected with an anti-Myc antibody or an anti-E1- or E2 antibody. The empty Flag vector was used as a negative control.
(§2) For cell lysate preparation, monolayer cells were lysed on ice with lysis buffer supplemented with protease inhibitor cocktail (Sigma or Pierce). After electrophoresis, the separated proteins were transferred onto a nitrocellulose membrane (Bio-Rad, Hercules, CA), blocked with 10% milk for 1 h, and incubated with the primary antibody overnight at 4 °C. The secondary antibody used was a 1:2000 dilution of HRP-linked anti-IgG. The ECL reagent (Amersham Biosciences, Piscataway, NJ) was used as the substrate for detection. […]

[3] = system: CLDN1, OCLND, CD81 and SR-BI in Huh7 cells; assay: Co-receptor expression and localization (immunofluorescence, Western blotting); type: cell-based, human; conditions: 1 μM 24 h (staining), 0, 0.1, 1 or 5 μM (Western blotting)
Procedure: Figure 4 E27 affects neither HCV co-receptor localization nor expression levels. (a) DMSO and E27 (1 μM) were added to Huh7 cells and allowed to incubate for 24 h. CLDN1, OCLND, CD81 and SR-BI were stained with corresponding antibodies (green), and nuclei (blue) were stained with DAPI. (b) Huh7 cells were treated with 0, 0.1, 1 or 5 μM of E27, and the expression levels of CLDN1, OCLND, CD81 and SR-BI were analyzed by Western blotting. The expression of β-actin was also analyzed as a loading control.
Immunostaining of Huh7 cells was performed using antibodies against CLDN1, OClD, SR-BI or CD81 as previously descriped. Images were captured on a Leica SPW5 confocal microscope. Nucleus was stained with DAPI.
as §2, with “detection. For immunoprecipitation-coupled Western blotting, cleared cell lysates were immunoprecipitated with anti-FLAG M2 affinity resin (Sigma) and washed with lysis buffer.” for “detection.”

[4] = system: HCV entry into Huh7.5.1 cells; assay: Time-of-addition assays; type: cell-based, Hepatitis C virus; conditions: 1 μM
Procedure: Next, to further corroborate that E27 targets HCV fusion, we sought to define the steps of HCV cell entry targeted by E27. […] In addition, we added E27 to Huh7.5.1 cells at different time intervals during the early phase of HCV infection. Three different time-points assays were conducted: cells were exposed to HCV for 1 h at 4 °C (attachment/binding period). Virus was removed, and the cells were washed with serum-free medium and incubated at 4 °C for another 1 h (postattachment/binding period). The cells were then washed and incubated for 1 h at 37 °C (endocytosis/fusion period). Finally, the cells were washed and incubated in 10% FBS-containing culture medium for 24 h, E27 was added at one of these steps. […] Moreover, we compared inhibitory kinetics between E27 and bafilomycin A1, a well-recognized inhibitor of fusion during virus infection.
Huh7.5.1 cells were seeded at 8 × 10^4 cells/well in 24-well plates. The next day, virus inoculum was added to the plates, which were then incubated at 4 °C for 1 h. Unbound virus was removed by 3 washes with cold medium. The cells were then shifted to 37 °C and incubated. The specified inhibitors were added at specific time points during infection and were either removed by washing after two hours or added back as described in the Figure legends. Firefly luciferase activity was quantified at 48 h post-infection. The experiments were performed in triplicate.

[5] = system: Huh7.5.1 cells; assay: Cytotoxicity assay (MTT); type: cell-based, human
Procedure: Huh7.5.1 cells were treated with E27 for the indicated concentration and period of time. After removal of E27, cells were incubated for an additional 48 h in 24-well plates. Cytotoxicity was determined using the MTT Cell Viability Assay Kit from R&D Systems (Minneapolis, MN, USA).

[6] = system: VSV-G-pseudotyped lentivirus; type: cell-based
[7] = target: HCV glycoprotein E1E2-mediated membrane fusion (Hepatitis C virus genotype 1a, UniProt P27958); assay: cell-based; type: cell-based, Hepatitis C virus (strain H77); conditions: cell-cell fusion assay (Supplementary Fig. S3)
Chain of HCV glycoprotein E1E2-mediated membrane fusion (Hepatitis C virus genotype 1a, UniProt P27958) (P27958 384-746): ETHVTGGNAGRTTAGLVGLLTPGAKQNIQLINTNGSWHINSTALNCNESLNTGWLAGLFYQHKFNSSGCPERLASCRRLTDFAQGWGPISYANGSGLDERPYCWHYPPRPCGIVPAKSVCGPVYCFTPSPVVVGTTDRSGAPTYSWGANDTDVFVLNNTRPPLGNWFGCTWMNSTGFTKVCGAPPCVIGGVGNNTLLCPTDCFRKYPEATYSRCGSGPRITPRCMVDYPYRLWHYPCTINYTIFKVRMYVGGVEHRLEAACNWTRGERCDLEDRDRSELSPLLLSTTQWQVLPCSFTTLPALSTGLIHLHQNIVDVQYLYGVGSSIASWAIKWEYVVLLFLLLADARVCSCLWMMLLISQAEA
Chain of HCV glycoprotein E1E2-mediated membrane fusion (Hepatitis C virus genotype 1a, UniProt P27958) (P27958 192-383): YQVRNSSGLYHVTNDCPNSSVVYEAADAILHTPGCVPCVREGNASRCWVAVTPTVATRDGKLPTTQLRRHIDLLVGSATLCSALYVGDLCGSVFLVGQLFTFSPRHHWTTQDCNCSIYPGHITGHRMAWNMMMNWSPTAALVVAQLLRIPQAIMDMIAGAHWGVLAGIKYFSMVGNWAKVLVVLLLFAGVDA

[8] = system: HCV glycoprotein E1E2-mediated membrane fusion; assay: cell-based; type: cell-based, Hepatitis C virus (strain H77)
[9] = system: HCV full-length genotype 1b replicon-containing cell line (2-3+); type: cell-based, Hepatitis C virus; conditions: replicon cells, 1 μM, 48 h
[10] = system: E1/E2 glycoproteins; assay: Co-immunoprecipitation of E27 with E1 or E2; type: binding, Hepatitis C virus; conditions: Myc-tagged E27 co-expressed with Flag-tagged E1 or E2, anti-Flag immunoprecipitation
Procedure: as §1, §2

[11] = system: HCVpp packaged with E1E2 from genotypes 1–6; assay: HCVpp entry assay; type: cell-based, Hepatitis C virus; conditions: HCVpp system and HCVcc system (Fig. 8A,B)

Compound	virocidal effect on HCV [1]	effect on E1E2 heterodimers [2]	effect on subcellular distribution and expression of co-receptors [3]	inhibition when added during the attachment or binding step ([4]; 1 h at 4 °C)	inhibition when added together with the virus or within 2 h of infection ([4]; HCVpp, Huh7.5.1 cells, luciferase at 48 h)	inhibition when added prior to infection ([4]; added 2 or 4 h prior to HCVpp inoculation and removed, luciferase at 48 h)	inhibition of HCV infection when added during the late entry step ([4]; endocytosis/fusion period, 1 h at 37 °C)	CC50 [5] [µM]	inhibition of entry of VSV-G–pseudotyped lentivirus [6]	suppression of wild-type E1E2-mediated fusion [7]	susceptibility of E1-1 and E1-9 mutated E1E2 to E27 in the fusion assay [8]	effect on intracellular HCV core protein level ([9]; Western blotting)	effect on HCV RNA replication ([9]; qRT-PCR)	interaction with E1 or E2 [10]	antiviral activity compared to the parental peptide [11]
CC[C@H](C)[C@H](NC(=O)[C@H](CC(C)C)NC(=O)CNC(=O)[C@@H](NC(=O)[C@H](CO)NC(=O)[C@H](CC(C)C)NC(=O)[C@H](C)NC(=O)[C@@H]1CCCN1C(=O)[C@H](CC(C)C)NC(=O)[C@@H](NC(=O)[C@@H](NC(=O)[C@H](Cc1ccccc1)NC(=O)[C@H](CO)NC(=O)[C@H](CS)NC(=O)[C@@H]1CCCN1C(=O)[C@H](CC(C)C)NC(=O)[C@@H](NC(=O)[C@H](CCC(N)=O)NC(=O)[C@H](Cc1c[nH]c2ccccc12)NC(=O)[C@@H](N)CCC(N)=O)C(C)C)[C@@H](C)O)[C@@H](C)O)[C@@H](C)O)C(=O)N[C@@H](Cc1c[nH]cn1)C(=O)N[C@@H](CC(C)C)C(=O)N[C@@H](Cc1c[nH]cn1)C(=O)N[C@@H](CCC(N)=O)C(=O)N[C@@H](CC(N)=O)C(=O)N[C@H](C(=O)N[C@H](C(=O)N[C@@H](CC(=O)O)C(=O)N[C@H](C(=O)N[C@@H](CCC(N)=O)C(=O)N[C@@H](Cc1ccc(O)cc1)C(=O)N[C@@H](CC(C)C)C(=O)N[C@@H](Cc1ccc(O)cc1)C(=O)NCC(=O)N[C@H](C(=O)O)C(C)C)C(C)C)C(C)C)[C@@H](C)CC [E27] (H-QWQVLPCSFTTLPALSTGLIHLHQNIVDVQYLYGV-OH; N-terminus and C-terminus assumed)	no virocidal effect	significant decrease	no detectable effect	no inhibition was observed	best inhibitory activity	no inhibition was observed	strong inhibition	180.3	did not inhibit	efficiently suppressed	markedly increased resistance	no impact	no impact	neither E1 nor E2 interact independently with E27	–
CSFTTLP ALSTGLIHLHQNIVDVQYLYGV [E27-2, E27 shortened by 6 aa from the N-terminus, residues 7-35]	–	–	–	–	–	–	–	–	–	–	–	–	–	–	slightly increased

Source: publication PMC4848495, “Identification of a Potent and Broad-Spectrum Hepatitis C Virus Fusion Inhibitory Peptide from the E2 Stem Domain” (Scientific Reports, 2016)
